Measurements from the NIST ThermoML archive (doi:10.1021/je9006713).

Test: mn = molality of the nth substance listed, in mol/kg
Details: Liquid, glass piezometer

[I-].[NH4+] [ammonium iodide] + N
mass density [kg/m3]
Details	m1 = 0.867	m1 = 1.827	m1 = 3.103	m1 = 4.856	m1 = 7.271	m1 = 11.18	m1 = 16.46
343.15 K, 10000 kPa	632.1	716.4	814.6	933.1	1062.2	1188.9	1293.1
343.15 K, 15000 kPa	638	721.7	818.9	937.1	1065.7	1192.1	1296
343.15 K, 20000 kPa	643.7	726.9	823.2	941.1	1069.2	1194.9	1298.5
343.15 K, 25000 kPa	649.4	731.9	827.6	945.1	1072.4	1197.3	1301.4
343.15 K, 30000 kPa	654.8	737	831.8	949.2	1075.2	1199.8	1303.9
353.15 K, 10000 kPa	615.5	700.1	797.7	917.8	1049.9	1177.9	1284.9
353.15 K, 15000 kPa	621.8	705.7	803	922.1	1053.5	1181	1287.4
353.15 K, 20000 kPa	627.9	711.2	808.3	926.5	1056.9	1183.7	1289.9
353.15 K, 25000 kPa	634.3	716.6	813.5	931	1060.4	1186.5	1292.4
353.15 K, 30000 kPa	640.4	721.9	818.7	935.2	1063.5	1188.9	1294.5
363.15 K, 10000 kPa	593.9	680.1	780.9	903.2	1037.1	1166.7	1274.7
363.15 K, 15000 kPa	601.7	687.2	786.3	907.9	1040.7	1169.8	1277.2
363.15 K, 20000 kPa	609.6	694.2	791.7	912.5	1044.1	1172.8	1279.6
363.15 K, 25000 kPa	617.4	701.2	797.3	916.8	1047.4	1175.5	1281.7
363.15 K, 30000 kPa	625.2	708.4	802.8	921.1	1050.5	1177.9	1283.9
373.15 K, 10000 kPa	579.5	666.9	768.1	889.8	1026.1	1155.3	1265.9
373.15 K, 15000 kPa	587.3	674	773.7	894.4	1029.7	1158.5	1268.6
373.15 K, 20000 kPa	595.1	681	779.4	898.9	1033.2	1161.6	1271
373.15 K, 25000 kPa	603.1	687.8	785.2	903.4	1036.7	1164.3	1273.4
373.15 K, 30000 kPa	610.8	694.7	790.9	907.8	1039.9	1166.8	1275.8
